This note sets out measurements from patent US20230023559A1, “ARYLMETHYLENE HETEROCYCLIC COMPOUNDS AS KV1.3 POTASSIUM SHAKER CHANNEL BLOCKERS” (D. E. Shaw Research, LLC, priority 2019, published 2023).

For this assay, the target named is T1, Kv1.3 potassium channel (Homo sapiens, UniProt P22001).
T1 construct: expressed in transfected cells
The assay can be described thus: Kv1.3 potassium channel blocker activity, automated whole-cell patch clamp (Patchliner). It is filed as cell-based. The settings on record: CHO-K1 cells stably expressing Kv1.3; whole cell current inhibition; read-out: Kv1.3_IC50. As for the experimental part: The assay described below is used to evaluate the disclosed compound's activities as Kv1.3 potassium channel blockers.
CHO-K1 cells stably expressing Kv1.3 were grown in DMEM containing 10% heat-inactivated FBS, 1 mM Sodium Pyruvate, 2 mM L-Glutamine and G418 (500 μg/ml).
All compounds were dissolved in DMSO at 30 mM.
The currents were evoked by applying 100 ms depolarizing pulses from −90 mV (holding potential) to +40 mV were applied with 0.1 Hz frequency. […] 10 second breaks were used between pulse trains (see Table A below).
Data were sampled at 10 kHz without filtering. Passive leak currents were subtracted online using a P/4 procedure (HEKA Elektronik Dr. Schulze GmbH). […] Total compound incubation time before the next pulse train was not longer than 10 seconds. Peak current inhibition was observed during compound equilibration.
In general terms: Patch clamp records ionic current or voltage across a cell membrane.

Structures are written as SMILES.

T1 sequence (P22001 whole entry): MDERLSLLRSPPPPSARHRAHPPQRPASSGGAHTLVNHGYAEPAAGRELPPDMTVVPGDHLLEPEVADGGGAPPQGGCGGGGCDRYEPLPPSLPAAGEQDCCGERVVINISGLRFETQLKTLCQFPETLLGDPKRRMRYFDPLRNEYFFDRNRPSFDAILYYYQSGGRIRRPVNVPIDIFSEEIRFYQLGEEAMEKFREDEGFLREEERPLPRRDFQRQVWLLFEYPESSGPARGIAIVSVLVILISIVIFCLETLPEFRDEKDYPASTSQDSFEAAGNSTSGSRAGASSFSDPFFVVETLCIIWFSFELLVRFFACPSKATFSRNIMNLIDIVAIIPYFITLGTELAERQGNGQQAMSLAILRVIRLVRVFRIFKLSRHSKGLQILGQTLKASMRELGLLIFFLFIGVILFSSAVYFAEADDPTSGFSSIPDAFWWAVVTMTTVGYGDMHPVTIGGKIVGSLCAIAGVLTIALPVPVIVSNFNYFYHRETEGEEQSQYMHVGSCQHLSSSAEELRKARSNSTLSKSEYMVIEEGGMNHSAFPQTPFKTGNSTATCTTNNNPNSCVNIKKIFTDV

What is called IC50 is the concentration at which inhibition is half-maximal. With `N[C@@H](c1cc(Cl)c(Cl)cc1O)[C@H]1CCN(C(=O)[C@H](O)CO)C1` (single isomer, unassigned; isomer 2) [Compound 312], the IC50 is less than 10 µM.
For the compound `Cc1cc(O)c([C@H](N)C2CCN(C(=O)c3ccc4c(c3)NC(=O)CC4)CC2)cc1Cl` [Compound 273, 7-[4-[(R)-amino (5-chloro-2-hydroxy-4-methylphenyl)methyl]piperidine-1-carbonyl]-3,4-dihydro-1H-quinolin-2-one trifluoroacetic acid], the IC50 is less than 10 µM.
With `CC(O)(c1cc(Cl)c(Cl)cc1O)C1CCNCC1` (centres unmarked) [Compound 3, 4,5-dichloro-2-[1-hydroxy-1-(piperidin-4-yl)ethyl]phenol] the figure was less than 10 µM; with `NC(=O)C(c1cc(Cl)c(Cl)cc1O)C1CCNCC1` (centres unmarked) [Compound 18, 2-(4,5-dichloro-2-hydroxyphenyl)-2-(piperidin-4-yl)acetamide], less than 10 µM; with `Cc1cc(O)c([C@H](N)C2CCN(C(=O)c3ccc4c(c3)CCC(=O)N4)CC2)cc1Cl` [Compound 259, 6-[4-[(R)-amino (5-chloro-2-hydroxy-4-methylphenyl)methyl]piperidine-1-carbonyl]-3,4-dihydro-1H-quinolin-2-one trifluoroacetic acid], less than 0.5 µM.
The value for `N[C@@H](c1cc(Cl)ccc1O)C1CCN(C(=O)[C@H](O)CO)CC1` [Compound 295, (2R)-1-[4-[(R)-amino(5-chloro-2-hydroxyphenyl)methyl]piperidin-1-yl]-2,3-dihydroxypropan-1-one] was less than 10 µM; that for `O=S(=O)([C@H]1CCNC1)N1CCC([C@@H](O)c2cc(Cl)c(Cl)cc2O)CC1` (single isomer, unassigned; isomer 1) [Compound 124, 4,5-dichloro-2-(hydroxy(1-(pyrrolidin-3-ylsulfonyl)piperidin-4-yl)methyl)phenol Isomer 1] was less than 0.5 µM; that for `O=C([C@H]1CCNC1)N1CCC[C@H]([C@H](O)c2c(O)ccc(Cl)c2Cl)CC1` (single isomer, unassigned; isomer 2) [Compound 129] was less than 10 µM.
Take `COc1cc(C(=O)N2CCC([C@@H](N)c3cc(Cl)c(C)cc3O)CC2)c[nH]c1=O` [Compound 251, 5-[4-[(R)-amino(5-chloro-2-hydroxy-4-methylphenyl)methyl]piperidine-1-carbonyl]-3-methoxy-1H-pyridin-2-one Trifluoroacetic Acid]: the IC50 was less than 0.5 µM.
With `NC(c1cc(Cl)c(Cl)cc1O)C1CCN(C(=O)NC2CC2)CC1` (centres unmarked) [Compound 57, 4-(amino(4,5-dichloro-2-hydroxyphenyl)methyl)-N-cyclopropylpiperidine-1-carboxamide] the figure was less than 10 µM; with `CS(=O)(=O)NC(c1cc(Cl)c(Cl)cc1O)C1CCNCC1` (centres unmarked) [Compound 12, N-((4,5-dichloro-2-hydroxyphenyl)(piperidin-4-yl)methyl)methanesulfonamide], less than 10 µM.
Consider `C[C@](O)(c1cc(Cl)c(Cl)cc1O)C1CCNCC1` (single isomer, unassigned; isomer 2) [Compound 26, 4,5-dichloro-2-(1-hydroxy-1-(piperidin-4-yl)ethyl)phenol Isomer 2], for which the IC50 is less than 10 µM.
Consider `Cc1[nH]c(=O)ccc1C(=O)N1CCC([C@@H](N)c2cc(Cl)c(Cl)cc2O)CC1` [Compound 230, (R)-5-(4-(amino(4,5-dichloro-2-hydroxyphenyl)methyl)piperidine-1-carbonyl)-6-methylpyridin-2(1H)-one], for which the IC50 is less than 10 µM.
The value for `O=S(=O)([C@@H]1CCNC1)N1CCC([C@H](O)c2cc(Cl)c(Cl)cc2O)CC1` (single isomer, unassigned; isomer 2) [Compound 125, 4,5-dichloro-2-(hydroxy(1-(pyrrolidin-3-ylsulfonyl)piperidin-4-yl)methyl)phenol Isomer 2] was less than 10 µM; that for `N[C@H](c1cc(Cl)c(Cl)cc1O)C1CCN(C(=O)[C@@H]2CCNC2)CC1` (single isomer, unassigned) [Compound 84] was less than 10 µM.
With `Cc1cc(O)c([C@H](N)C2CCN(C(=O)c3ccc4[nH]c(=O)[nH]c4c3)CC2)cc1Cl` [Compound 256, 5-[4-[(R)-amino (5-chloro-2-hydroxy-4-methylphenyl)methyl]piperidine-1-carbonyl]-1,3-dihydro-1,3-benzodiazol-2-one trifluoroacetic acid] the figure was less than 0.5 µM; with `CCNC(c1cc(Cl)c(Cl)cc1O)C1CCN(C(=O)C(O)CO)CC1` (centres unmarked) [Compound 182, 1-[4-[(4,5-dichloro-2-hydroxyphenyl)(ethylamino)methyl]piperidin-1-yl]-2,3-dihydroxypropan-1-one Trifluoroacetic Acid], less than 10 µM.
For `NC(c1cc(Cl)c(Cl)cc1O)C1CCN(Cc2ccccc2)CC1` (centres unmarked) [Compound 41, 2-(amino(1-benzylpiperidin-4-yl)methyl)-4,5-dichlorophenol Trifluoroacetic Acid], the IC50 is less than 10 µM.
`Cc1cc(O)c([C@H](N)C2CCN(C(=O)c3cc(Cl)c(=O)n(C)c3)CC2)cc1Cl` [Compound 270, 5-[4-[(R)-amino (5-chloro-2-hydroxy-4-methylphenyl)methyl]piperidine-1-carbonyl]-3-chloro-1-methyl-pyridin-2-one trifluoroacetic acid]: the IC50 is less than 0.5 µM.
In the case of `NC(c1cc(Cl)c(Cl)cc1O)C1CCN(C(=O)C(F)(F)F)CC1` (centres unmarked) [Compound 77, 1-[4-[amino(4,5-dichloro-2-hydroxyphenyl)methyl]piperidin-1-yl]-2,2,2-trifluoroethan-1-one Trifluoroacetic Acid], the IC50 is less than 10 µM.
For the compound `O=S(=O)([C@@H]1CCNC1)N1CCC([C@@H](O)c2cc(Cl)c(Cl)cc2O)CC1` (single isomer, unassigned; isomer 4) [Compound 127, 4,5-dichloro-2-(hydroxy(1-(pyrrolidin-3-ylsulfonyl)piperidin-4-yl)methyl)phenol Isomer 4], the IC50 is less than 0.5 µM.
The value for `OCC(c1cc(Cl)c(Cl)cc1O)C1CCNCC1` (centres unmarked) [Compound 5, 4,5-dichloro-2-[2-hydroxy-1-(piperidin-4-yl)ethyl]phenol] was less than 10 µM; that for `N[C@H](c1cc(Cl)c(Cl)cc1O)C1CCNCC1` (single isomer, unassigned) [Compound 15, Trifluoroacetic Acid] was less than 10 µM.
Consider `NC(c1cc(Cl)c(Cl)c(F)c1O)C1CCN(C(=O)[C@H](O)CO)CC1` (stereo partly drawn) [Compound 290, (2R)-1-[4-[amino(4,5-dichloro-3-fluoro-2-hydroxyphenyl)methyl]piperidin-1-yl]-2,3-dihydroxypropan-1-one Trifluoroacetic Acid], for which the IC50 is less than 10 µM.
`O=C([C@H]1CCNC1)N1CCCC(C(O)c2cc(Cl)c(Cl)cc2O)CC1` (stereo partly drawn) [Compound 128, 4,5-dichloro-2-[hydroxy([1-[(3S)-pyrrolidine-3-carbonyl]azepan-4-yl])methyl]phenol]: the IC50 is less than 10 µM.
Regarding `CC1(C)C[C@@H]([C@H](N)c2cc(Cl)c(Cl)cc2O)CCN1` (single isomer, unassigned; diastereoisomer 1) [Compound 72, 2-(amino(2,2-dimethylpiperidin-4-yl)methyl)-4,5-dichlorophenol Trifluoroacetic Acid Diastereoisomer 1], the IC50 is less than 30 µM.
As to `CC(C)c1cc(O)c([C@H](N)C2CCN(C(=O)[C@H](O)CO)CC2)cc1Cl` [Compound 282, (2R)-1-(4-((R)-amino(5-chloro-2-hydroxy-4-isopropylphenyl)methyl)piperidin-1-yl)-2,3-dihydroxypropan-1-one], the half-inhibitory concentration (IC50) was less than 30 µM.
Consider `CC(=O)N1CCC(C(CN)c2cc(Cl)c(Cl)cc2O)CC1` (centres unmarked) [Compound 28, 1-[4-[2-amino-1-(4,5-dichloro-2-hydroxyphenyl)ethyl]piperidin-1-yl]ethan-1-one], for which the IC50 was less than 30 µM.
With `NC(c1cc(Cl)c(Cl)cc1O)[C@@H]1C[C@@H]2CN(C(=O)[C@H](O)CO)C[C@@H]2C1` (stereo partly drawn) [Compound 225, (2R)-1-((3aR,5R,6aS)-5-(amino(4,5-dichloro-2-hydroxyphenyl)methyl)hexahydrocyclopenta[c]pyrrol-2 (1H)-yl)-2,3-dihydroxypropan-1-one], the IC50 was less than 10 µM.
With `Cc1ccc(S(=O)(=O)N2CCC(C(N)c3cc(Cl)c(Cl)cc3O)CC2)cc1` (centres unmarked) [Compound 35, 2-(amino(1-tosylpiperidin-4-yl)methyl)-4,5-dichlorophenol] the figure was less than 10 µM.
With `CC[C@H](N)C(=O)N1CCC([C@@H](N)c2cc(Cl)c(Cl)cc2O)CC1` [Compound 91, (S)-2-amino-1-(4-((R)-amino(4,5-dichloro-2-hydroxyphenyl)methyl)piperidin-1-yl)butan-1-one trifluoroacetic acid], the IC50 is less than 0.5 µM.
Take `CN1CCC([C@@H](O)c2cc(Cl)c(Cl)cc2O)CC1` (single isomer, unassigned) [Compound 24]: the IC50 was less than 10 µM.
The value for `CC(C)(N)C(=O)N1CCC([C@@H](N)c2cc(Cl)c(Cl)cc2O)CC1` [Compound 90, (R)-2-amino-1-(4-(amino(4,5-dichloro-2-hydroxyphenyl)methyl)piperidin-1-yl)-2-methylpropan-1-one trifluoroacetic acid] was less than 0.5 µM.
On to `NCC(c1cc(Cl)c(Cl)cc1O)C1CCNCC1` (centres unmarked) [Compound 8, 2-[2-amino-1-(piperidin-4-yl)ethyl]-4,5-dichlorophenol], for which the IC50 was less than 10 µM.
Regarding `N[C@@H](c1cc(Cl)c(C2=CCCC2)cc1O)C1CCN(C(=O)[C@H](O)CO)CC1` [Compound 318, (2R)-1-[4-[(R)-amino[5-chloro-4-(cyclopent-1-en-1-yl)-2-hydroxyphenyl]methyl]piperidin-1-yl]-2,3-dihydroxypropan-1-one Trifluoroacetic Acid], the IC50 was less than 30 µM.
